Test results reported in patent US8986994B2, “Substituted pyridines and pyrimidines” (Technische Universitaet Wien, priority 2009, dated 2015).
Read-outs that look alike come from different tables or passages of the source.

Experiments:
ANF (C2C12 cells) = test: ANF promoter luciferase reporter assay in C2C12 cells; type: cell-based, mouse; details: for luciferase signal in all three reporter assays: ANF, TOPflash and Nkx2.5 reporter assays together; for fold induction at 1 µM: Mus musculus, read-out: ANF activity
TOPflash (C2C12 cells) = test: TOPflash luciferase reporter assay in C2C12 cells; type: cell-based; details: Mus musculus, read-out: TOPflash activity
Nkx2.5 (C2C12 cells) = test: Nkx2.5 luciferase reporter assay in C2C12 cells; type: cell-based; details: Mus musculus, read-out: Nkx2.5 activity
ANF (P19 cells) = test: ANF promoter luciferase reporter assay in P19 cells; type: cell-based, mouse; details: for fold induction at 1 µM: Mus musculus, read-out: ANF activity
TOPflash (P19 cells) = test: TOPflash luciferase reporter assay in P19 cells; type: cell-based; details: Mus musculus, read-out: TOPflash activity
Nkx2.5 (P19 cells) = test: Nkx2.5 luciferase reporter assay in P19 cells; type: cell-based; details: Mus musculus, read-out: Nkx2.5 activity
[1] = 192 h, C2C12 cells, 1 μM for 8 days, luciferase signal vs control (untreated cells)
[2] = 192 h, P19 cells, 1 μM for 8 days, luciferase signal vs control (untreated cells)

| Compound | fold induction at 1 µM (ANF (P19 cells); P19, 192 h) | fold induction at 1 µM (ANF (P19 cells); [2]) | fold induction at 1 µM (Nkx2.5 (P19 cells); [2]) | also measured |
| --- | --- | --- | --- | --- |
| COc1ccc(Nc2cc(NC3CCCCC3)ncn2)cc1 [example 3, N^4-Cyclohexyl-N^6-(4-methoxyphenyl)pyrimidine-4,6-diamine] | > 2 |  |  | luciferase signal in all three reporter assays (ANF (C2C12 cells); C2C12 cells, 1 μM for 8 days): increase in the luciferase signal in all three reporter assays; fold induction at 1 µM (ANF (C2C12 cells); C2C12, 192 h): > 2; fold induction at 1 µM (TOPflash (C2C12 cells); C2C12, 192 h): 1.3 to 2; fold induction at 1 µM (Nkx2.5 (C2C12 cells); C2C12, 192 h): > 2; luciferase signal in all three reporter assays (ANF (P19 cells); P19 cells, 1 μM for 8 days, ANF, TOPflash and Nkx2.5 reporter assays together): increase in the luciferase signal in all three reporter assays; fold induction at 1 µM (TOPflash (P19 cells); P19, 192 h): > 2; fold induction at 1 µM (Nkx2.5 (P19 cells); P19, 192 h): > 2; melting point: 218 to 219 °C |
| OCCNc1cc(Nc2ccc(N3CCOCC3)cc2)ncn1 [example 4, 2-(6-(4-Morpholinophenylamino)pyrimidin-4-ylamino)ethan-1-ol] |  | < 1.3 | < 1.3 | fold induction at 1 µM (ANF (C2C12 cells); [1]): < 1.3; fold induction at 1 µM (TOPflash (C2C12 cells); [1]): < 1.3; fold induction at 1 µM (Nkx2.5 (C2C12 cells); [1]): < 1.3; fold induction at 1 µM (TOPflash (P19 cells); [2]): 1.3 to 2; melting point: 204 to 207 °C |
| COc1ccc(Nc2cc(NC(C)C)ncn2)cc1 [example 12, N^4-(2-Propyl)-N^6-(4-methoxyphenyl)pyrimidine-4,6-diamine] | < 1.3 |  |  | luciferase signal in all three reporter assays (ANF (C2C12 cells); C2C12 cells, 1 μM for 8 days): increase in the luciferase signal in all three reporter assays; fold induction at 1 µM (ANF (C2C12 cells); C2C12, 192 h): 1.3 to 2; fold induction at 1 µM (TOPflash (C2C12 cells); C2C12, 192 h): 1.3 to 2; fold induction at 1 µM (Nkx2.5 (C2C12 cells); C2C12, 192 h): 1.3 to 2; fold induction at 1 µM (TOPflash (P19 cells); P19, 192 h): < 1.3; fold induction at 1 µM (Nkx2.5 (P19 cells); P19, 192 h): 1.3 to 2 |
| COCCNc1cc(Nc2ccc(OC)cc2)ncn1 [example 13, N^4-(2-Methoxyethyl)-N^6-(4-methoxyphenyl)pyrimidine-4,6-diamine] | 1.3 to 2 |  |  |  |
| COc1ccc(Nc2cc(NCC(=O)O)ncn2)cc1 [example 14, 2-(6-(4-Methoxyphenylamino)pyrimidin-4-ylamino)acetic acid] | > 2 |  |  |  |
| COc1ccc(Nc2cc(N3CCOCC3)ncn2)cc1 [example 15, N-(4-Methoxyphenyl)-6-morpholinopyrimidin-4-amine] |  | > 2 |  |  |
| COc1ccc(Nc2cc(N(C)CCO)ncn2)cc1 [example 16, 2-((6-(4-Methoxyphenylamino)pyrimidin-4-yl)(methyl)amino)ethan-1-ol] | > 2 |  |  |  |
| CCCCNc1cc(Nc2ccc(OC)cc2)ncn1 [example 17, N^4-Butyl-N^6-(4-methoxyphenyl)pyrimidine-4,6-diamine] |  | > 2 |  |  |
| COc1ccc(Nc2cc(NC3CCCC3)ncn2)cc1 [example 18, N^4-Cyclopentyl-N^6-(4-methoxyphenyl)pyrimidine-4,6-diamine] | > 2 |  |  |  |
| CCC(C)Nc1cc(Nc2ccc(OC)cc2)ncn1 (centres unmarked) [example 19, N^4-sec-Butyl-N^6-(4-methoxyphenyl)pyrimidine-4,6-diamine] |  | < 1.3 | < 1.3 |  |
| COc1ccc(Nc2cc(NC(C)(C)C)ncn2)cc1 [example 20, N^4-tert-Butyl-N^6-(4-methoxyphenyl)pyrimidine-4,6-diamine] | > 2 |  |  |  |
| COc1ccc(Nc2cc(NC34CC5CC(CC(C5)C3)C4)ncn2)cc1 [example 21, N^4-Adamant-1-yl-N^6-(4-methoxyphenyl)pyrimidine-4,6-diamine] | > 2 |  |  |  |
| COc1cccc(Nc2cc(NCCO)ncn2)c1 [example 22, 2-(6-(3-Methoxyphenylamino)pyrimidin-4-ylamino)ethan-1-ol] |  | < 1.3 | < 1.3 | fold induction at 1 µM (ANF (C2C12 cells); [1]): 1.3 to 2; fold induction at 1 µM (TOPflash (C2C12 cells); [1]): 1.3 to 2; fold induction at 1 µM (Nkx2.5 (C2C12 cells); [1]): < 1.3; fold induction at 1 µM (TOPflash (P19 cells); [2]): < 1.3 |
| OCCNc1cc(Nc2ccccc2)ncn1 [example 23, 2-(6-(Phenylamino)pyrimidin-4-ylamino)ethan-1-ol] |  | < 1.3 | < 1.3 |  |
| OCCNc1cc(Nc2ccc(Cl)cc2)ncn1 [example 24, 2-(6-(4-Chlorophenylamino)pyrimidin-4-ylamino)ethan-1-ol] |  | 1.3 to 2 | 1.3 to 2 | melting point: 183 °C |
| OCCNc1cc(Nc2cccc(Cl)c2)ncn1 [example 25, 2-(6-(3-Chlorophenylamino)pyrimidin-4-ylamino)ethan-1-ol] |  | > 2 | 1.3 to 2 |  |
| Clc1cccc(Nc2cc(NC3CCCCC3)ncn2)c1 [example 26, N^4-(3-Chlorophenyl)-N^6-cyclohexylpyrimidine-4,6-diamine] | > 2 |  |  | fold induction at 1 µM (Nkx2.5 (P19 cells); P19, 192 h): > 2 |
| COCCNc1cc(Nc2cccc(Cl)c2)ncn1 [example 27, N^4-(3-Chlorophenyl)-N^6-(2-methoxyethyl)pyrimidine-4,6-diamine] | < 1.3 |  |  | fold induction at 1 µM (Nkx2.5 (P19 cells); P19, 192 h): < 1.3 |
| O=[N+]([O-])c1ccc(Nc2cc(NCCO)ncn2)cc1 [example 30, 2-(6-(4-Nitrophenylamino)pyrimidin-4-ylamino)ethan-1-ol] |  | < 1.3 | < 1.3 |  |
| OCCCNc1cc(Nc2cccc(Cl)c2)ncn1 [example 31, 3-(6-(3-Chlorophenylamino)pyrimidin-4-ylamino)propan-1-ol] | 1.3 to 2 |  |  | fold induction at 1 µM (Nkx2.5 (P19 cells); P19, 192 h): 1.3 to 2 |
| OCCNc1cc(Nc2cccc(F)c2)ncn1 [example 32, 2-(6-(3-Fluorophenylamino)pyrimidin-4-ylamino)ethan-1-ol] |  | < 1.3 | < 1.3 |  |
| OCCNc1cc(Nc2cccc(Br)c2)ncn1 [example 33, 2-(6-(3-Bromophenylamino)pyrimidin-4-ylamino)ethan-1-ol] |  | < 1.3 | 1.3 to 2 |  |
| CCOC(=O)c1ccc(Nc2cc(NCCO)ncn2)cc1 [example 34, Ethyl 4-(6-(2-hydroxyethylamino)pyrimidin-4-ylamino)benzoate] |  | < 1.3 | < 1.3 |  |
| COc1cccc(Nc2cc(NC3CCCCC3)ncn2)c1 [example 37, N^4-Cyclohexyl-N^6-(3-methoxyphenyl)pyrimidine-4,6-diamine] | 1.3 to 2 |  |  | fold induction at 1 µM (Nkx2.5 (P19 cells); P19, 192 h): > 2 |
| COc1ccc(N(C)c2cc(NCCO)ncn2)cc1 [example 38, 2-(6-((4-Methoxyphenyl)(methyl)amino)pyrimidin-4-ylamino)ethan-1-ol] |  | > 2 |  |  |
| OCCNc1cc(NC2CCCCC2)ncn1 [example 39, 2-(6-(Cyclohexylamino)pyrimidin-4-ylamino)ethan-1-ol] | < 1.3 |  |  |  |
| COc1ccc(Nc2cccc(NCCCO)n2)cc1 [example 43, 3-(6-(4-Methoxyphenylamino)pyridin-2-ylamino)propan-1-ol] |  | 1.3 to 2 | < 1.3 | luciferase signal in all three reporter assays (ANF (C2C12 cells); C2C12 cells, 1 μM for 8 days): increase in the luciferase signal in all three reporter assays; fold induction at 1 µM (ANF (C2C12 cells); [1]): 1.3 to 2; fold induction at 1 µM (TOPflash (C2C12 cells); [1]): 1.3 to 2; fold induction at 1 µM (Nkx2.5 (C2C12 cells); [1]): 1.3 to 2; fold induction at 1 µM (TOPflash (P19 cells); [2]): 1.3 to 2 |
| OCCNc1cccc(Nc2ccc(Oc3ccccc3)cc2)n1 [example 44, 2-(6-(4-Phenoxyphenylamino)pyridin-2-ylamino)ethan-1-ol] |  | 1.3 to 2 | < 1.3 | fold induction at 1 µM (ANF (C2C12 cells); [1]): < 1.3; fold induction at 1 µM (TOPflash (C2C12 cells); [1]): < 1.3; fold induction at 1 µM (Nkx2.5 (C2C12 cells); [1]): 1.3 to 2; fold induction at 1 µM (TOPflash (P19 cells); [2]): < 1.3 |
| OCCCNc1cccc(Nc2ccc(Oc3ccccc3)cc2)n1 [example 45, 3-(6-(4-Phenoxyphenylamino)pyridin-2-ylamino)propan-1-ol] |  | < 1.3 | < 1.3 | fold induction at 1 µM (ANF (C2C12 cells); [1]): < 1.3; fold induction at 1 µM (TOPflash (C2C12 cells); [1]): 1.3 to 2; fold induction at 1 µM (Nkx2.5 (C2C12 cells); [1]): < 1.3; fold induction at 1 µM (TOPflash (P19 cells); [2]): < 1.3 |
